In brackets after ≈: the same amount, converted by molar mass. Counter-ions that a name gives are not always drawn. Like-named read-outs stand apart in the source and are kept apart here. Starred links: 1 amine or outer side, 2 acyl side, 3 side chain; linkers in the order of their positions; H or OH if unused. Positions of bridges follow the written chain, without caps; N, C: chain ends. Non-standard residues stand in square brackets, D forms with d. Residues, ends and D or L forms follow the SMILES beside them. Chains are numbered I, II in the order given. Actinocin(9to1) = Cc1c2oc3c(C)ccc(C(=O)[*:1])c3nc-2c(C(=O)[*:2])c(N)c1=O; NMeV = CN[C@H](C(=O)O)C(C)C; Sar = CNCC(=O)O
Tests used:
[1] = system: B. burgdorferi (growing, strain B31); test: MIC determination, standard microdilution method; format: cell-based, Borrelia burgdorferi; details: for sensitivity of log phase / multiplying B. burgdorferi (words, FIG. 12): MIC test
[2] = system: stationary phase B. burgdorferi persisters (strain B31); test: NCI compound library screen, SYBR Green I/PI assay (plate reader); details: for viability at 20 µM / viability at 50 µM: Borreliella burgdorferi, 168 h; for Residual viable cells (SYBR Green I/PI assay): 50 μM, seven day old stationary phase culture
[3] = system: stationary phase B. burgdorferi persisters (strain B31); test: NCI compound library rescreen, epifluorescence microscope counting; details: for viability at 50 µM / viability at 20 µM: Borreliella burgdorferi, 168 h; for viability at 20 µM: read-out: Residual viable cells (%) 20 μM (epifluorescence microscope counting); for Residual viable cells (epifluorescence microscope counting): seven day old stationary phase culture; for Activity against persisters (residual viable cell percentage): stationary phase persisters
[4] = system: round body form of B. burgdorferi; test: SYBR Green I/PI assay on amoxicillin-induced round body form
[5] = Borreliella burgdorferi, growing B. burgdorferi, read-out: MIC
[6] = read-out: Residual viable cells (%) 20 μM (SYBR Green I/PI assay)
[7] = read-out: Residual viable cells (SYBR Green I/PI assay)
[8] = read-out: Activity against persisters (residual viable cell percentage)
[9] = read-out: Residual viable cells (%) 50 μM (epifluorescence microscope counting)
[10] = read-out: Residual viable cells (epifluorescence microscope counting)
[11] = read-out: Residual viable cells (%) 20 μM (SYBR Green I/PI assay), 20 μM, seven day old stationary phase, 7 days
[12] = read-out: Residual viable cells (SYBR Green I/PI assay), 50 μM, seven day old stationary phase culture, 7 days
[13] = 20 μM, seven day old stationary phase, 7 days

| Structure (SMILES) | MIC [1, 5] | viability at 50 µM [2, 7] | viability at 50 µM [3, 8] | viability at 20 µM [3] | viability at 50 µM [3, 9] | viability at 50 µM [3, 10] | also measured |
| --- | --- | --- | --- | --- | --- | --- | --- |
| CC1Oc2cc3c(-c4c(O)cc(O)c5c(O)c6c(cc45)OC(C)C(C)C6=O)c(O)cc(O)c3c(O)c2C(=O)C1C (stereo not drawn) [NSC345647, Chaetochromin] | 2.74 to 5.47 µg/mL (≈ 5.01 to 10 µM) | 8% | 22% | 33% | 22% | 22% | viability at 20 µM [2, 6]: 31% |
| Cc1ncc([N+](=O)[O-])n1CCO [Metronidazole] | – | – | – | – | – | – | sensitivity of log phase / multiplying B. burgdorferi (words, FIG. 12) [1]: less potent; viability at 50 µM ([4]; Borreliella burgdorferi, 168 h, read-out: Residual viable cells (SYBR Green I/PI assay)): 33%; Ratios of green/red fluorescence, Primary screening ([4]; round body form, 50 μM, 7 days): 6.23; Ratios of green/red fluorescence, Rescreening (first column) ([4]; round body form, 50 μM, 7 days): 6.30; Ratios of green/red fluorescence, Rescreening (second column) ([4]; round body form, 50 μM, 7 days): 6.31 |
| Cc1cc(NS(=O)(=O)c2ccc(N)cc2)no1 [Smx, sulfamethoxazole] | ≤ 0.2 µg/mL | – | – | – | – | – | – |
| Cc1c2oc3c(C)ccc(C(=O)N[C@@H]4C(=O)N[C@H](C(C)C)C(=O)N5CCC[C@H]5C(=O)N(C)CC(=O)N(C)[C@@H](C(C)C)C(=O)O[C@@H]4C)c3nc-2c(C(=O)N[C@@H]2C(=O)N[C@H](C(C)C)C(=O)N3CCC[C@H]3C(=O)N(C)CC(=O)N(C)[C@@H](C(C)C)C(=O)O[C@@H]2C)c(N)c1=O [NSC3053, Dactinomycin] (I: T[dV]P[Sar][NMeV] / II: T[dV]P[Sar][NMeV]; ester I:1-I:C, II:1-II:C; linker I:N-II:N via Actinocin(9to1)) | – | – | – | – | – | – | MIC ([1]; growing B. burgdorferi, listed as Dactinomycin): ≦0.78 μg/mL; MIC ([1]; growing B. burgdorferi, listed as dactinomycin): ≤ 0.78 µg/mL; Residual viable cells (SYBR Green I/PI assay) ([2]; 7 days): 37%; Residual viable cells (epifluorescence microscope counting) ([3]; 50 μM, 7 days): 30%; Activity against persisters (residual viable cell percentage) [3]: 30% |
| C[C@]1(Cn2ccnn2)[C@H](C(=O)O)N2C(=O)C[C@H]2S1(=O)=O [tazobactam] | – | – | – | – | – | – | sensitivity of log phase / multiplying B. burgdorferi (words, FIG. 12) [1]: less potent |
| CCN(CC)c1ccc2cc3ccc(=[N+](CC)CC)cc-3oc2c1.[Cl-] [NSC44690, Pyronin B] | – | – | – | – | – | – | MIC ([1]; growing B. burgdorferi): 1.8 to 3.6 µg/mL |
| CCCCCC1=C/C(=C/c2[nH]c(-c3ccc[nH]3)cc2OC)N=C1C [NSC47147, Prodigiosin] | – | – | 24% | 45% | 24% | 24% | MIC ([1]; Borreliella burgdorferi): ≤ 0.2 µg/mL; MIC ([1]; growing B. burgdorferi): ≦0.2 μg/mL; viability at 20 µM [2, 11]: 0%; viability at 50 µM [2, 12]: 0% |
| Cc1cc(C(=C2C=CC(=N)C=C2)c2ccc(N)cc2)ccc1N [NSC93739, 2-Methyl-4,4′-[(4-imino-2,5-cyclohexadien-1-ylidene)methylene]dianiline hydrochloride] | – | 0% | – | 77% | 43% | 43% | viability at 20 µM [2, 6]: 0% |
| CO[C@@]12[C@H](COC(N)=O)C3=C(C(=O)C(C)=C(N)C3=O)N1C[C@@H]1N[C@@H]12 [NSC26980, Mitomycin] | – | – | 25% | – | – | 25% | MIC ([1]; Borreliella burgdorferi): ≤ 0.21 µg/mL; MIC ([1]; growing B. burgdorferi): ≦0.21 μg/mL; viability at 50 µM [2, 12]: 20% |
| COc1cccc2c1C(=O)c1c(O)c3c(c(O)c1C2=O)C[C@@](O)(/C(C)=N\O)C[C@@H]3OC1CC(N)C(O)C(C)O1.Cl (stereo partly drawn) [NSC143491, Daunomycin 3-oxime hydrochloride] | ≤ 0.36 µg/mL | 0% | 6% | – | – | 6% | – |
| N=C(Nc1nc(-c2ccccn2)cc2ccccc12)c1ccccn1 [NSC637578, N-[3-(2-Pyridyl)isoquinolin-1-yl]-2-pyridinecarboxamidine] | – | 46% | – | – | – | 26% | – |
| NC(=O)OCC1=C(COC(N)=O)C(=O)c2c(O)ccc(O)c2C1=O [NSC224124, (5,8-dihydroxy-1,4-dioxo-1,4-dihydronaphthalene-2,3-diyl)dimethanediyl dicarbamate] | – | 32% | – | 77% | 31% | 31% | viability at 20 µM [2, 6]: 54% |
| CC[C@@]1(O)C[C@H](O[C@H]2C[C@H](N(C)C)[C@H](O)[C@H](C)O2)c2c(cc3c(c2O)C(=O)c2c(O)ccc(O)c2C3=O)[C@H]1C(=O)OC [NSC267229, Pyrromycin] | – | – | – | – | – | – | MIC ([1]; growing B. burgdorferi): 0.37 to 0.73 µg/mL; Residual viable cells (%) 20 μM (SYBR Green I/PI assay) [2, 13]: 6%; Residual viable cells (SYBR Green I/PI assay) ([2]; 7 days): 0%; Residual viable cells (%) 20 μM (epifluorescence microscope counting) [3, 13]: 20%; Residual viable cells (epifluorescence microscope counting) ([3]; 50 μM, 7 days): 21%; Residual viable cells (%) 50 μM (epifluorescence microscope counting) ([3]; 50 μM, seven day old stationary phase, 7 days): 21%; Activity against persisters (residual viable cell percentage) [3]: 21% |
| CC1OC(CC(=O)O)CC2=C1C(=O)c1c(O)cccc1C2=O (stereo not drawn) [NSC267461, Nanaomycin] | 0.76 to 1.57 µg/mL (≈ 2.51 to 5.19 µM) | – | 26% | 45% | 26% | 26% | viability at 20 µM [2, 11]: 39%; viability at 50 µM [2, 12]: 34% |
| O=C1c2ccccc2C(=O)c2c(NCCNCCO)ccc(O)c21 [NSC299187, 9,10-Anthracenedione, 1-hydroxy-4-[[2-[(2-hydroxyethyl)amino]ethyl]amino]-] | 3.26 to 6.52 µg/mL (≈ 9.99 to 20 µM) | 5% | 13% | – | – | 13% | – |
| O=C1c2cccc(Sc3ccccc3)c2C(=O)c2c(Sc3ccccc3)cccc21 [NSC156516, 1,8-Di(phenylthio)anthraquinone] | – | – | – | – | – | 50% | viability at 50 µM [2, 12]: 46% |

Reference: patent US20170058314A1, “NOVEL METHODOLOGY FOR IDENTIFYING ANTI-PERSISTER ACTIVITY AND ANTIMICROBIAL SUSCEPTIBILITY FOR BORRELIA BURGDORFERI AND OTHER BACTERIA” (priority 2014, published 2017)
